Active and inactive are the calls of the source. No cut-off for these calls is given here.
How the values were obtained:
[1] = biological target: Superoxide dismutase [Cu-Zn] (Homo sapiens) (UniProt P00441); test: Binding affinity to Superoxide dismutase [Cu-Zn] (unknown origin) after 10 min at 20 degC by Stern-Volmer plot analysis
[2] = biological target: Superoxide dismutase [Cu-Zn] (Homo sapiens) (UniProt P00441); test: Binding affinity to Superoxide dismutase [Cu-Zn] (unknown origin) after 10 min at 30 degC by Stern-Volmer plot analysis
[3] = biological target: Superoxide dismutase [Cu-Zn] (Homo sapiens) (UniProt P00441); test: Binding affinity to Superoxide dismutase [Cu-Zn] (unknown origin) after 10 min at 37 degC by Stern-Volmer plot analysis
[4] = biological target: Superoxide dismutase [Cu-Zn] (Homo sapiens) (UniProt P00441); test: Binding affinity to Superoxide dismutase [Cu-Zn] (unknown origin) at 3.86 10^-5 mol/l after 10 min by UV-Vis spectrophotometric analysis
[5] = biological target: Superoxide dismutase [Cu-Zn] (Homo sapiens) (UniProt P00441); test: Binding affinity to Superoxide dismutase [Cu-Zn] (unknown origin) at 3.86 10^-5 mol/l after 10 min by fluorometric analysis
Oryctolagus cuniculus [6] = species on record: Oryctolagus cuniculus; test: Inactivation of New Zealand white Oryctolagus cuniculus (rabbit) Superoxide dismutase [Cu-Zn] at 28.8 mg QD for 7 days measured after 7 days by pyrogallol-oxidation method; type: functional, organism-based
Oryctolagus cuniculus [7] = species on record: Oryctolagus cuniculus; test: Inactivation of New Zealand white Oryctolagus cuniculus (rabbit) Superoxide dismutase [Cu-Zn] at 28.8 mg QD for 7 days measured up to 7 days by pyrogallol-oxidation method; type: functional, organism-based

Sequence of Superoxide dismutase [Cu-Zn] (Homo sapiens) (P00441 whole entry): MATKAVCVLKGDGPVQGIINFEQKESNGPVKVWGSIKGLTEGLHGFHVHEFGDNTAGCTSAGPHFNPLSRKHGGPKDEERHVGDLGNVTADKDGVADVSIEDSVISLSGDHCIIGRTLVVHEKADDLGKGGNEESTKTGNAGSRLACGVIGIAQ

K [1]	Kq [1]	K [2]	Kq [2] [×10¹² L/mol/s]	K [3]	Kq [3] [×10¹² L/mol/s]	Activity [4]	Activity [5]	Activity (Oryctolagus cuniculus [6])	Activity (Oryctolagus cuniculus [7])	Compound
6.73 ×10⁷ L/mol	1.01 ×10¹³ L/mol/s	7.9 ×10⁶ L/mol	7.73	1.34 ×10⁶ L/mol	6.42	Active	Active	–	–	C[C@H]1c2cccc(O)c2C(=O)C2=C(O)[C@]3(O)C(=O)C(C(N)=O)=C(O)[C@@H](N(C)C)[C@@H]3[C@@H](O)[C@@H]21
1.44 ×10⁵ L/mol	4.37 ×10¹² L/mol/s	8.93 ×10⁴ L/mol	4.22	3.62 ×10⁴ L/mol	3.96	Active	Active	–	–	CN(C)[C@@H]1C(O)=C(C(N)=O)C(=O)[C@@]2(O)C(O)=C3C(=O)c4c(O)cccc4[C@@](C)(O)[C@H]3[C@H](O)[C@@H]12
–	5.97 ×10¹² L/mol/s	–	5.3	–	5.25	Active	Active	inactive	Active	CN(C)[C@@H]1C(O)=C(C(N)=O)C(=O)[C@@]2(O)C(O)=C3C(=O)c4c(O)cccc4[C@@](C)(O)[C@H]3C[C@@H]12

From ChEMBL document CHEMBL3045813, “Study of the inactivation of copper, zinc superoxide dismutase by tetracycline analogues” (Med Chem Res, 2008)
